Measured values reported in US12479816B2, “20-HETE formation inhibitors” (UNIVERSITY OF PITTSBURGH—OF THE COMMONWEALTH SYSTEM OF …, priority 2019, dated 2025).
≈ marks a conversion by molar mass, not a printed value.

How the values were obtained:
[1] = system: 20-HETE formation (CYP4) in HLM; test: Inhibition of 20-HETE formation at 250 or 500 nM in HLM microsomal incubations; assay type: biochemical, human; settings: 500 nM compound; HLM 300 μg/ml, AA 100 μM, 20 min
Method in brief: (§1)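 Liver or kidney microsomes (300 μg/ml) or rCYP4F2 (25 pmol/mL) were incubated with 100 μM arachidonic acid, 1 mM NADPH and compound at 250 or 500 nM in 0.12 M potassium phosphate/5 mM MgCl2 for 20 min at 37 °C. 20-HETE was measured by UPLC-MS/MS against 20-HETE-d6 and expressed as % of vehicle (n=3).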

rCYP4F2 = target: T1, rCYP4F2 (Homo sapiens, UniProt P78329); test: Inhibition of 20-HETE formation at 250 or 500 nM in rCYP4F2 incubations; assay type: biochemical; settings: 500 nM compound; rCYP4F2 25 pmol/mL; read-out: rCYP4F2 % inh. @ 500 nM
T1 sequence (P78329 5-520): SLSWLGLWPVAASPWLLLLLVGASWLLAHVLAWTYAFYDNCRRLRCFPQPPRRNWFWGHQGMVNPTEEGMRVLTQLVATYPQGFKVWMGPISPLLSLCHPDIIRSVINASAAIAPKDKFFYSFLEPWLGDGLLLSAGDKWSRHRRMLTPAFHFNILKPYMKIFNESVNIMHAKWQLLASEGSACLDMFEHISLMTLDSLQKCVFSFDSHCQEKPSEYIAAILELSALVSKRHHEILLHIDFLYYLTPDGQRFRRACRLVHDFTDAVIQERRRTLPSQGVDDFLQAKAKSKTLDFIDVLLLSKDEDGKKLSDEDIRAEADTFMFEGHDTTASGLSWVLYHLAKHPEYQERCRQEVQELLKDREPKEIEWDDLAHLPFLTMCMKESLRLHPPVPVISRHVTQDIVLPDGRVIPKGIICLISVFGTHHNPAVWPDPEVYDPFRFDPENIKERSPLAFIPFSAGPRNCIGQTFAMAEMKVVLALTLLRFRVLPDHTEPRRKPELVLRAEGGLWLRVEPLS
Method in brief: as §1

[2] = system: 20-HETE formation (CYP4) in RKM; test: Inhibition of 20-HETE formation at 250 or 500 nM in RKM microsomal incubations; assay type: biochemical, rat; settings: 500 nM compound; RKM 300 μg/ml
Method: To screen the inhibitory effects against 20-HETE formation, compounds were screened in HLM, RLM, RKM and rCYP4F2 microsomal incubations. Compounds dissolved in either 100% methanol or 100% DMSO to yield 10 mM stock solution. Microsomal incubations containing HLM, RLM, RKM (300 μg/ml) or rCYP4F2 (25 pmol/mL), AA (100 μM), NADPH (1 mM) treated with test compounds at various concentrations (500 nM or 250 nM) in a 1 ml total volume in incubation buffer (0.12 M potassium phosphate buffer containing 5 mM magnesium chloride). Reaction was started by adding NADPH to the incubates and was carried out at 37° C. in a shaking water bath for 20 min. Reaction was stopped by placing tubes on ice, followed by adding 125 μl 20-HETE-d6 as internal standard to each sample. Microsomal incubations were extracted with 3 ml ethyl ether twice, dried down under nitrogen gas and reconstituted in 125 μl 80:20 methanol:deionized H2O for analysis. 20-HETE formation was quantified using a validated UPLC-MS/MS assay and normalized by vehicle group. Each compound had three replications (n=3). Vehicle group was used as control to calculate percentage of 20-HETE formation rate. HET0016 (250 nM) was used as positive control. Incubates without NADPH group served as the negative control. An Acquity ultra performance LC autosampler (Waters, Milford, MA) was used to isolate 20-HETE on an UPLC BEH C18, 1.7 μm (2.1×100 mm) reversed-phase column (Waters, Milford, MA) protected by a guard column (2.1×5 mm; Waters, Milford, MA) of the same packing material. Column temperature was maintained at 55° C. Mobile phases consisted of 0.005% acetic acid, 5% acetonitrile in deionized water (A) and 0.005% acetic acid in acetonitrile (B). The flow rate for mobile phases is 0.5 ml/min. The initial mixture of mobile phase was 65:35 of A and B. Mobile phase B increased at 0.4 minutes after injection from 35% to 70% in a linear gradient over 4 minutes, and again increased to 95% over 0.5 minutes where it remained for 0.3 minutes. This was followed by a linear return to initial conditions over 0.1 minutes with a 1.5 minute pre-equilibration period prior to the next sample run. Total run time was 6.4 minutes for each injection. Injection volumes were 7.5 μl. Mass spectrometric analysis was carried out using a TSQ Quantum Ultra (Thermo Fisher Scientific, San Jose, CA) triple quadrupole mass spectrometer using heated electrospray ionization (HESI). Mass spectrometer was operated in negative selective reaction monitoring (SRM) mode with unit resolutions at both Q1 and Q3 set at 0.70 Da full width at half maximum. Scan time was set at 0.01 s and collision gas pressure was 1.3 mTorr. Quantitation of 20-HETE by SRM was performed by monitoring the m/z. Analytical data was acquired and analyzed using Xcaliber 3.0 data system (ThermoFinnigan, San Jose, CA).

[3] = system: 20-HETE formation (CYP4) in RLM; test: Inhibition of 20-HETE formation at 250 or 500 nM in RLM microsomal incubations; assay type: biochemical, rat; settings: 500 nM compound; RLM 300 μg/ml
Method in brief: as §1

[4] = Turbidometric solubility determination; assay type: physicochemical; settings: PBS with 1% DMSO, aqueous buffer, kinetic from dmso stock, room temperature, OD620, read-out: Max Solub
Method: Solubility determinations shown in Table 3 were obtained turbidometrically and in a manner similar to the one described in Perez et al., J. Biomol. Screen, 2015, 20(2), 254-64. The method requires small volumes of 100× stock concentration drug solution to be prepared in DMSO 0, 0.23, 0.47, 0.94, 1.88, 3.75, 7.5, 15.0, 30.0 and […]. The stock drug concentrations are then diluted 1:100 added into triplicate wells containing PBS in a clear bottom 384 well microtiter to achieve final testing concentrations of 0, 2.3, 4.7, 9.4, 18.8, 37.5, 75, 150, 300, 600 μM in 1% DMSO. The plate is allowed to equilibrate with constant shaking for 2 hours at room temperature. The plate is then placed in a SpectroMax V plate reader to measure absorbance at 620 nm. Increase in absorbance is evident in test wells which precipitation of the compound is evident. The plot of OD620 vs. drug concentration is used to calculate the maximum solubility limit as determined by a statistically significant increase in absorbance above the background levels.

| Compound | HLM % inh. @ 500 nM [1] [%] | inhibition at 0.5 µM (rCYP4F2) [%] | RKM % inh. @ 500 nM [2] [%] | RLM % inh. @ 500 nM [3] [%] | solubility at 2 h [4] [µM] |
| --- | --- | --- | --- | --- | --- |
| Fc1cccc(C2CCN(c3ccn[nH]3)CC2)c1 [Compound 48, 4-(3-Fluorophenyl)-1-(1H-pyrazol-5-yl)piperidine] | 67.00 | 63 | 8.00 | 0.00 | – |
| Fc1ccc(C2CCN(c3ccn[nH]3)CC2)cc1 [Compound 18, 4-(4-Fluorophenyl)-1-(1H-pyrazol-5-yl)piperidine] | 66.00 | 70 | 0.00 | 41.00 | – |
| Cc1ccccc1C1CCN(c2ccn[nH]2)CC1 [Compound 35, 1-(1H-Pyrazol-5-yl)-4-(o-tolyl)piperidine] | 20.00 | 20 | 4.00 | 0.00 | – |
| Fc1ccccc1C1CCN(c2cn[nH]c2)CC1 [Compound 51, 4-(2-Fluorophenyl)-1-(1H-pyrazol-4-yl)piperidine] | 77.00 | 94 | 26.00 | 53.00 | – |
| c1cnc(N2CCN(c3cn[nH]c3)CC2)nc1 [Compound 4, 2-(4-(1H-Pyrazol-4-yl)piperazin-1-yl)pyrimidine] | 0.00 | 0 | 0.00 | 0.00 | – |
| COc1cc(C2CCN(c3ccn[nH]3)CC2)ccn1 [Compound 16, 4-(1-(1H-Pyrazol-5-yl)piperidin-4-yl)-2-methoxypyridine] | 27.00 | 28 | 0.00 | 29.00 | – |
| COc1cc(C2CCN(c3cn[nH]c3)CC2)ccn1 [Compound 15, 4-(1-(1H-Pyrazol-4-yl)piperidin-4-yl)-2-methoxypyridine] | 39.00 | 54 | 27.00 | 16.00 | – |
| c1cnc(C2CCN(c3cn[nH]c3)CC2)nc1 [Compound 10, 2-(1-(1H-Pyrazol-4-yl)piperidin-4-yl)pyrimidine] | 0.00 | 0 | 0.00 | 0.00 | – |
| O=S(=O)(c1ccccc1)C1CCN(c2cn[nH]c2)CC1 [Compound 42, 4-(Phenylsulfonyl)-1-(1H-pyrazol-4-yl)piperidine] | 5.00 | 28 | 0.00 | 0.00 | – |
| COC(=O)c1ccc(C2CCN(c3ccn[nH]3)CC2)cc1 [Compound 11, Methyl 4-(1-(1H-pyrazol-5-yl)piperidin-4-yl)benzoate] | 0.00 | 66.5 | 1.60 | 3.60 | – |
| COc1cc(C2CCN(c3ccn[nH]3)CC2)ccc1F [Compound 74, 4-(4-Fluoro-3-methoxyphenyl)-1-(1H-pyrazol-5-yl)piperidine] | 55 | 32 | – | 0.00 | 201 (≈ 55.3 µg/mL) |
| COc1ccc(SC2CCN(c3cn[nH]c3)CC2)cc1 [Compound 80, 4-((4-Methoxyphenyl)thio)-1-(1H-pyrazol-4-yl)piperidine] | 86 | 90 | – | 42.00 | 89 (≈ 25.8 µg/mL) |
| COc1ccc(C2CCN(c3ccn[nH]3)CC2)cc1Cl [Compound 67, 4-(3-Chloro-4-methoxyphenyl)-1-(1H-pyrazol-5-yl)piperidine] | 83.2 | 90.9 | – | 30.20 | 205 (≈ 59.8 µg/mL) |
| COc1ccc(C2CCN(c3cn[nH]c3)CC2)c(Cl)c1 [Compound 65, 4-(2-Chloro-4-methoxyphenyl)-1-(1H-pyrazol-4-yl)piperidine] | 57.00 | 35 | – | 0.00 | 18.7 (≈ 5.46 µg/mL) |
| COc1ccc(C2CCN(c3ccn[nH]3)CC2)c(Cl)c1 [Compound 66, 4-(2-Chloro-4-methoxyphenyl)-1-(1H-pyrazol-5-yl)piperidine] | 36 | 58 | – | 0.00 | 133 (≈ 38.8 µg/mL) |
| COc1cc(C2CCN(c3cn[nH]c3)CC2)ccc1F [Compound 75, 4-(4-Fluoro-3-methoxyphenyl)-1-(1H-pyrazol-4-yl)piperidine] | 61.10 | 74.5 | – | 0.00 | 127 (≈ 35 µg/mL) |
